# Experimental data published in paper PMC5659129, “Determinants of the Inhibition of DprE1 and CYP2C9 by Antitubercular Thiophenes” (Angewandte Chemie (International Ed. in English), 2017).
# Like-named read-outs stand apart in the source and are kept apart here.
# Legend:
# Mtb WT = assay: microbe, parasite or virus in culture; format: cell-based, Mycobacterium tuberculosis; settings: for MIC: Mycobacterium tuberculosis, 168 h
# Mtb Erdman [1] = format: in vivo, BALB/c mouse; settings: 3 weeks, acute phase
# Mtb Erdman [2] = format: in vivo, BALB/c mouse; settings: 200 mg kg−1, oral, 4 weeks, chronic phase
# CYP2C9 [3] = target: T1, CYP2C9 (Homo sapiens, UniProt P11712); settings: for IC50 ratio (CYP2C9 over DprE1): selectivity
# T1 sequence (P11712 whole entry): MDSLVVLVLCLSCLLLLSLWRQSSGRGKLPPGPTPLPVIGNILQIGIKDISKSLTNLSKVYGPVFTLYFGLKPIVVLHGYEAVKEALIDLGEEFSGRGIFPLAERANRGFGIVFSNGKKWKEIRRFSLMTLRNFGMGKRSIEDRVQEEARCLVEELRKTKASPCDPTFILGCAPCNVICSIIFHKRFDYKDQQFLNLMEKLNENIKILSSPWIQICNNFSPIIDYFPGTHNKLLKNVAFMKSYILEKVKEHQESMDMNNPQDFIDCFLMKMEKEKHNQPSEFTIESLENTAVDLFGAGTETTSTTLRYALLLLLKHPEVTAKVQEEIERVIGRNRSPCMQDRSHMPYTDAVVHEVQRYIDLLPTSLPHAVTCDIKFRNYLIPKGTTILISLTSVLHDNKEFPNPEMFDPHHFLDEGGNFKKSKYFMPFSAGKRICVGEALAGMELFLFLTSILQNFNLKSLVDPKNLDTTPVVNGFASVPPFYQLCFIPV
# CYP1A2 = CYP1A2 (Homo sapiens, UniProt P05177); settings: microsomes
# Chain of CYP1A2 (P05177 whole entry): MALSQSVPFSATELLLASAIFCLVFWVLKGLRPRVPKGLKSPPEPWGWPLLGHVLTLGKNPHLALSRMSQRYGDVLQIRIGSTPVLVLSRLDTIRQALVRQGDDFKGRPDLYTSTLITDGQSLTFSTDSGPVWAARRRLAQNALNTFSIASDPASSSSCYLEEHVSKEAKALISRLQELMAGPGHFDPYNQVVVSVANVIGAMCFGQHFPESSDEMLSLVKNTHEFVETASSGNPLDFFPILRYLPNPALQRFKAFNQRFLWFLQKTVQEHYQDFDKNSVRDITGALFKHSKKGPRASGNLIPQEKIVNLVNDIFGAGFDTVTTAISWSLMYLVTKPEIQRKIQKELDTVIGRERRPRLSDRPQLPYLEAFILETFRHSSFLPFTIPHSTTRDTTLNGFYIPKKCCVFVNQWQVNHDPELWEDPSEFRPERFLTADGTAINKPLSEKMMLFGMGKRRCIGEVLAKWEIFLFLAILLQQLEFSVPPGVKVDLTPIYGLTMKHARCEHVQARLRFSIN
# CYP3A4 = CYP3A4 (Homo sapiens, UniProt P08684); settings: microsomes
# Chain of CYP3A4 (P08684 whole entry): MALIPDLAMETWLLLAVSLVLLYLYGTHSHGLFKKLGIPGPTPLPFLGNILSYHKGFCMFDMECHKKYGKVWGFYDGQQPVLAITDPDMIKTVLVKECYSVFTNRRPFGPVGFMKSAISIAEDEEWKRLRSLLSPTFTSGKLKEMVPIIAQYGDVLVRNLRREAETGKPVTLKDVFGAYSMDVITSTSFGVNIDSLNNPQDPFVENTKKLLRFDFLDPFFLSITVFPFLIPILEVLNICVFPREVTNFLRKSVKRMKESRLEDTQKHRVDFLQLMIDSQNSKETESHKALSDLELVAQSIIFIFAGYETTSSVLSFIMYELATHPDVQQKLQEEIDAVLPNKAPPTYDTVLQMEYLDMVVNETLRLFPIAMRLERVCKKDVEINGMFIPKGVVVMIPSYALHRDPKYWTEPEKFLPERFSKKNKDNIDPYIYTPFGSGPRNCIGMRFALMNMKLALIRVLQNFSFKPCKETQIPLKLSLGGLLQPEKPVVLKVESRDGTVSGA
# CYP2D6 = CYP2D6 (Homo sapiens, UniProt P10635); settings: microsomes
# Chain of CYP2D6 (P10635 whole entry): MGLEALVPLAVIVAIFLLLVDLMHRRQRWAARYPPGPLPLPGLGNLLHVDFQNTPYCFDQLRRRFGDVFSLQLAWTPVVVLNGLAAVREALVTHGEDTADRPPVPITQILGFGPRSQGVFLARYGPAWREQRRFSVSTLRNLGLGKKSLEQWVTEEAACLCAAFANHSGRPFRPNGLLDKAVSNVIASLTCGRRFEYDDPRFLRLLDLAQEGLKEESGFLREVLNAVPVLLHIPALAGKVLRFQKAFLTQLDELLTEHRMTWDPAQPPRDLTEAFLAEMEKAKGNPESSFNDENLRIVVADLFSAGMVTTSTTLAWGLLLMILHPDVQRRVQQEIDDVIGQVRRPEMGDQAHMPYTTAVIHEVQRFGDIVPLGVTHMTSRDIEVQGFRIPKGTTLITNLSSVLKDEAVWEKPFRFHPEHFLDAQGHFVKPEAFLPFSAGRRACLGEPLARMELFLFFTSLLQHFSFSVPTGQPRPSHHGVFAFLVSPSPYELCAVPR
# CYP2C19 = CYP2C19 (Homo sapiens, UniProt P33261); settings: microsomes
# Chain of CYP2C19 (P33261 whole entry): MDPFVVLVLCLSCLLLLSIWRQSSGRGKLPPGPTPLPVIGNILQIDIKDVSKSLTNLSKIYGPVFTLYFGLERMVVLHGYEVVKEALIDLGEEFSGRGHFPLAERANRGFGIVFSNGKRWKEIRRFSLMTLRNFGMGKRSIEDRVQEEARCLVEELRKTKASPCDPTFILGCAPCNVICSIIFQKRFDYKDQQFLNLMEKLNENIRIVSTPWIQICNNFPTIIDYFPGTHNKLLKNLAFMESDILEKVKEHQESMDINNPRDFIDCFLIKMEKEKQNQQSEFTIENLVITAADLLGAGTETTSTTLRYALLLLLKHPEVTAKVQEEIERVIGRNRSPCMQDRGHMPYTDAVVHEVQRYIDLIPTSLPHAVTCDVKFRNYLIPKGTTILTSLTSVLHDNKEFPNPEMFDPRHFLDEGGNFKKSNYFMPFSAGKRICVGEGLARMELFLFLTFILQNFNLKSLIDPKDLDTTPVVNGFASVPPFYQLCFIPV
# hERG potassium channel = hERG potassium channel (Homo sapiens, UniProt Q12809); assay: cell-based
# Chain of hERG potassium channel (Q12809 whole entry): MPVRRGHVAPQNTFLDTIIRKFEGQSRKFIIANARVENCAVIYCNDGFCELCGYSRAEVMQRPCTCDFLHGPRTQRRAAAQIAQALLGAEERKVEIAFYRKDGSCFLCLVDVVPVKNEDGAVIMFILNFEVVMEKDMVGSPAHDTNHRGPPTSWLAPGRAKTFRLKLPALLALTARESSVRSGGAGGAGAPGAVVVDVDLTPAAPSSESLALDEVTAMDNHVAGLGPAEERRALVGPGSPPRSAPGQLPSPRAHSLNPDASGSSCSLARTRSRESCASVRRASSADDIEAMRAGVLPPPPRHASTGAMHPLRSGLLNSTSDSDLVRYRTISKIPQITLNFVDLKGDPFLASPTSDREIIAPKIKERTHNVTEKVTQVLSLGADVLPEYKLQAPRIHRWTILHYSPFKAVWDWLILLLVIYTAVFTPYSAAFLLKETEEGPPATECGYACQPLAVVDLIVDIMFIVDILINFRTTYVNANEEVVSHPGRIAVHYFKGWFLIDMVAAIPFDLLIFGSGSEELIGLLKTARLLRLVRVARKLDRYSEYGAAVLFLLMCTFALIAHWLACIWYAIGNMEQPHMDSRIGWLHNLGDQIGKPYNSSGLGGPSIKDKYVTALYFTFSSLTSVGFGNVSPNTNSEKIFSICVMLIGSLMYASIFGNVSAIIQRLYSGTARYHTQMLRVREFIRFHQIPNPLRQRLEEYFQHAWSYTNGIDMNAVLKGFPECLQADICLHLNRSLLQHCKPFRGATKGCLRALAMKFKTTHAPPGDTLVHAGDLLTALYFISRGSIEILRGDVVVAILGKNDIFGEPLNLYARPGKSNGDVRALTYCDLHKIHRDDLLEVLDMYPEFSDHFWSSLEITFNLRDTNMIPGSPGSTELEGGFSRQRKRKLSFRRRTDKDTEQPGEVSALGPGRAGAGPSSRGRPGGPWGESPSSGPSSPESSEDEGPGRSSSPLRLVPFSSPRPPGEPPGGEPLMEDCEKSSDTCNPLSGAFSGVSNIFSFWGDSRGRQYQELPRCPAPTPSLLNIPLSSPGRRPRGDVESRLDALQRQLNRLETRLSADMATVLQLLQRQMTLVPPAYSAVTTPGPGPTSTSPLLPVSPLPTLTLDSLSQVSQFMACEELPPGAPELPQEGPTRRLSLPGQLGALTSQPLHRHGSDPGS
# [4] = Mini-Ames mutagenicity test
# HepG2 cell line = assay: In vitro cytotoxicity assay, HepG2; settings: up to a concentration of 100 μM
# Vero cell line = assay: In vitro cytotoxicity assay (MTT), Vero; settings: up to a concentration of 100 μM
# Experimental: In vitro cytotoxicity assay. Vero epithelial cells (from African green monkey; ATCC
# CCL-81) were cultured in Dulbecco’s modified Eagle’s medium (DMEM) supplemented
# with 10% fetal bovine serum (FBS) and maintained in a humidified incubator (37°C in
# 5% CO2). Cells were dislodged with a cell scraper, collected by centrifugation,
# resuspended in fresh medium at 10^6 cells/ml, dispensed into 96-well microtiter plates
# (100 ml/well), and incubated for 18 h at 37°C. Two-fold serial dilutions of test
# compounds in DMEM with FBS were subsequently added, and cells were incubated for
# another 72 h. In triplicate studies, the cytopathic effects of compounds were evaluated
# colorimetrically by using the 3-(4, 5- dimethyl-2-thiazolyl)-2, 5-diphenyl-2H-tetrazolium
# bromide (MTT) cell proliferation assay (ATCC).
# CYP2C9 [5] = target: T1, CYP2C9; assay: in vitro; settings: microsomes, pH 7.4
# M. smegmatis DprE1 WT = M. smegmatis DprE1 WT (Mycolicibacterium smegmatis, UniProt A0R607); assay: biochemical
# Chain of M. smegmatis DprE1 WT (A0R607 whole entry): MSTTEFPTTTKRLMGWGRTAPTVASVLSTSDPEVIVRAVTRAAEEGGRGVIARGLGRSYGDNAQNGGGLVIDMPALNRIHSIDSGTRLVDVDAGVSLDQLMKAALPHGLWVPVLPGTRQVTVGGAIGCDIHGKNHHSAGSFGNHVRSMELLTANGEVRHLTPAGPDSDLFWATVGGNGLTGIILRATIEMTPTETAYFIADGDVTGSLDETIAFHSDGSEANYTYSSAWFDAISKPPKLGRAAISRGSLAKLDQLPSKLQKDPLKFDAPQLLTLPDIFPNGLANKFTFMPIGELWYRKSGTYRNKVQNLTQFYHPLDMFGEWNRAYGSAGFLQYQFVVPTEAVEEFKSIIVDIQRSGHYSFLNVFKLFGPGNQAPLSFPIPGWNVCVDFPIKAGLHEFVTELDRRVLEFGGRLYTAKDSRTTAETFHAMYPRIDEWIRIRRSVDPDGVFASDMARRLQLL
# CYP2C9 [6] = target: T1, CYP2C9; assay: biochemical
# [7] = MABA, 7 days, 90% reduction in fluorescence
structure (smiles),measurement,setting,value
CCOC(=O)NC(=O)c1ccsc1NC(=O)c1nc2ccccc2s1 [TCA1],MIC,Mtb WT; [7],0.23 ± 0.012 µM
CCOC(=O)NC(=O)c1ccsc1NC(=O)c1nc2cnccc2s1 [TCA007],MIC,Mtb WT; [7],0.089 ± 0.0066 µM
same,reduction of bacterial load in lung,"Mtb Erdman [1]; 50 mg kg−1, oral",1.7 log10 CFU
same,reduction of bacterial load in lung,"Mtb Erdman [1]; 100 mg kg−1, oral",2.3 log10 CFU
same,reduction of CFU in mouse lungs,Mtb Erdman [2],> 1.7 log10 CFU
same,inhibitory effect for CYP2C9,CYP2C9 [3]; microsomes,strong inhibitory effect
same,inhibition of CYP1A2,CYP1A2,no inhibition
same,inhibition of CYP3A4,CYP3A4,no inhibition
same,inhibition of CYP2D6,CYP2D6,no inhibition
same,inhibition of CYP2C19,CYP2C19,no inhibition
same,IC50,hERG potassium channel,> 30000 nM
same,genetic toxicity,[4],no genetic toxicity
same,cytotoxicity against HepG2,HepG2 cell line,not cytotoxic
same,cytotoxicity against Vero,Vero cell line,not cytotoxic
O=C(Nc1sccc1C(=O)Nc1ncccn1)c1nc2cnccc2s1 [TCA020],MIC WT,Mtb WT; [7],2.5 ± 0.48 µM
same,MIC,Mtb WT; [7],2.5 µM
CCOC(=O)NC(=O)c1cc(F)sc1NC(=O)c1nc2ccccc2s1 [TCA481],more potent than TCA1 based on MIC,Mtb WT; MIC relative to TCA1,5 fold
same,MIC,Mtb WT; [7],0.046 ± 0.0025 µM
CCOC(=O)NC(=O)c1ccsc1NC(=O)c1ccn2cnnc2c1 [TCA582],IC50 ratio (CYP2C9 over DprE1),CYP2C9 [3],33
same,IC50,CYP2C9 [5],1830 nM
Cc1ccnc(NC(=O)c2ccsc2NC(=O)c2ccn3cnnc3c2)n1 [TCA711],IC50,"M. smegmatis DprE1 WT; Figure 4D, read-out: DprE1 IC50",30 nM
same,IC50 ratio (CYP2C9 over DprE1),CYP2C9 [3],1515
same,IC50,CYP2C9 [6],> 50000 nM
Cc1ccnc(NC(=O)c2ccsc2NC(=O)c2nc3cnccc3s2)n1 [TCA787],IC50,"M. smegmatis DprE1 WT; M. smegmatis DprE1, Table 1, read-out: IC50 DprE1 WT",96 ± 38 nM
same,MIC,Mtb WT; [7],0.44 ± 0.12 µM
